According to paper PMC6597546, “Identification of a potent benzoxaborole drug candidate for treating cryptosporidiosis” (Nature Communications, 2019):
Values after ≈ are worked out from the molar mass of the structure shown.

How the values were obtained:
[1] = in vivo; details: male, Sprague-Dawley, rat, po
Experimental: A repeated oral dose toxicity and separate toxicokinetics (TK) study were performed in male rats by WuXi AppTec Company (Suzhou, China). […] Animals were individually housed in solid bottom plastic cages with bedding in compliance with the US Animal Welfare Act. All rat studies were performed using ∼8-week-old Sprague-Dawley male rats (Rattus novegicus)/Crl: CD[SD] […] Cage side clinical observations of condition and behavior (i.e., gait, stool, activity level, atonia, coat soiling and grooming, skin turgor, posture, priapism, piloerection) were performed twice daily during the dosing phase, and weights and food consumption were measured daily. At termination, all study animals were evaluated for erythrocyte count, absolute reticulocyte count, alkaline phosphatase, and triglycerides by fasting the animals overnight and obtaining blood from the abdominal aorta at necropsy as a terminal procedure under deep anesthesia (pentobarbital). A complete necropsy and histopathologic studies (hematoxylin and eosin staining) of large intestine, small intestine, stomach, and any gross lesions were performed on all animals on day 7 of dosing. […] Serum was collected from vehicle-control animals at 1 h and 4 h after dosing on days 1 and 7. […] Following completion of blood collection, TK animals were euthanized by CO2 inhalation and exsanguination without necropsy.

[2] = Cytotoxicity murine L929 (3d); format: cell-based; details: mouse, L929 cells, 25 µM highest concentration tested
[3] = test system: C. parvum intracellular DNA synthesis; test: EdU incorporation DNA replication assay; format: cell-based, Cryptosporidium parvum; details: 2 × EC90 = 0.42 µM
Experimental: The invasion assay, DNA replication assay, asexual to sexual stage conversion, and time-kill curve assays were performed using fluorescence microscopy to enumerate parasites and host cell nuclei. Staining protocols are individually described for each assay. Unless noted otherwise, the details of image acquisition were as follows. An inverted Nikon Eclipse Ti2000 microscope with an automated stage and Perfect Focus was used with NIS-Elements Advanced Research software (Nikon, USA, version 4.30.01) to image the wells. The microscope was programmed to focus on the center of each well and then take a 3 × 3 composite image per well using a 20 × (0.45 NA) objective. Images were exported as .tiff files and parasites and host nuclei counted using a custom macro on ImageJ (National Institutes of Health, version 1.52a). Data were analyzed using Microsoft Excel and GraphPad Prism (version 6.01). Measurement of DNA replication was used as a surrogate marker of Cryptosporidium development within HCT-8 cells. […] Images were acquired by focusing on the parasite focal plane, which is on top of the host cell monolayer, using a ×40 objective (0.7 NA) and EdU and lectin numbers were quantified using ImageJ software.

[4] = Liver microsome Clint (human); format: in vitro ADME; details: liver microsomes
[5] = Single-dose oral and intravenous murine PK; format: in vivo, female CD-1 mice; details: female, mouse, plasma, CD-1 mice
Experimental: Single-dose oral and intravenous murine PK studies were performed by WuXi Biologics (Wuxi, China) in female CD-1 mice in compliance with animal care guidelines. […] Single-dose oral calf PK studies were performed at the University of Vermont in compliance with animal care guidelines and with approval from the University of Vermont Institutional Animal Care and Use Committee. […] Doses were squirted into the calves’ mouths during interruptions in bottle feeding. Fecal samples were collected at the indicated times by manual anal stimulation. […] Fecal AN7973 was measured by extracting AN7973 from homogenized feces with acetonitrile. For this, feces were added to 4 volumes of acetonitrile (4 mL per g), mixed by vortexing for 5 min at room temperature, and then centrifuged. […] The fecal extraction method was validated with a standard curve of compound added to control feces. […] Non-compartmental analysis of the mean concentration-time profiles was performed using Phoenix version 6.4 (Pharsight Corporation, Mountain View, CA, USA). Concentrations below the limit of quantitation were assigned values of zero for generation of mean concentrations. Predictions of multidose exposures were generated by non-parametric superposition of the single-dose PK data using Phoenix version 6.4 (Supplementary Fig. 5).

[6] = test system: C. parvum invasion of HCT-8 host cells; test: HCT-8 host cell invasion assay; format: cell-based, Cryptosporidium parvum; details: HCT-8 host cells, 3 h
Experimental: The invasion assay, DNA replication assay, asexual to sexual stage conversion, and time-kill curve assays were performed using fluorescence microscopy to enumerate parasites and host cell nuclei. Staining protocols are individually described for each assay. Unless noted otherwise, the details of image acquisition were as follows. An inverted Nikon Eclipse Ti2000 microscope with an automated stage and Perfect Focus was used with NIS-Elements Advanced Research software (Nikon, USA, version 4.30.01) to image the wells. The microscope was programmed to focus on the center of each well and then take a 3 × 3 composite image per well using a 20 × (0.45 NA) objective. Images were exported as .tiff files and parasites and host nuclei counted using a custom macro on ImageJ (National Institutes of Health, version 1.52a). Data were analyzed using Microsoft Excel and GraphPad Prism (version 6.01).
Host cell invasion was assayed by allowing C. parvum to invade host cell monolayers in the presence of compound, and enumerating parasites and host cells after just 3 h (i.e., before completion of a parasite division cycle)[38]. HCT-8 cells were grown in RPMI media supplemented with 120 U per mL penicillin and 120 μg per mL streptomycin and 10% heat inactivated fetal bovine serum (complete media) and C. parvum Iowa isolate oocysts from Bunch Grass Farms (Deary, ID) were used for infection. When cells reached a confluence of >99%, media was removed and replaced with 25 µL per well of fresh media containing twice the indicated concentrations of compounds and incubated for 1 h at 37 °C in a humidified CO2 incubator. In the meantime, oocysts were induced for excystation by first treating with 10 mM hydrochloric acid (diluted with distilled water) for 10 min at 37 °C followed by 2 mM sodium taurocholate (in phosphate buffered saline (PBS) with calcium and magnesium) for 10 min at 16 °C. Before and after each treatment, oocysts were spun down at 14,000 × g for 4.5 min and supernatant was removed. […]

[7] = Plasma Protein Binding (bovine); format: in vitro ADME; details: read-out: Plasma Protein Binding (PPB) (converted)
[8] = Solubility PBS pH 7.4; format: physicochemical; details: aqueous buffer
[9] = 2 mg/kg, intravenous 2 mg per kg

CC1(C)OB(O)c2cc(NC(=O)c3ccc(-n4cccn4)cc3Cl)ccc21 [AN7973]
NOAEL at 7 days [1]: > 80 mg/kg/day | IC50 at 3 d [2]: > 25 µM | effect on intracellular DNA synthesis (EdU incorporation) [3]: arrested new DNA synthesis | microsomal CLint [4]: < 1 µL/min/mg | AUC(0-inf) [5, 9]: 49700 ng·h/mL | Cmax [5, 9]: 6820 ng/mL | clearance [5, 9]: 0.667 mL/min/kg | half-life [5, 9]: 6 h | AUC(0-inf) ([5]; 10 mg/kg, oral 10 mg per kg): 92700 ng·h/mL | Cmax ([5]; 10 mg/kg, oral 10 mg per kg): 8630 ng/mL | half-life ([5]; 10 mg/kg, oral 10 mg per kg): 6.6 h | bioavailability ([5]; 10 mg/kg, oral 10 mg per kg, read-out: bioavailability F): 37% | activity in C. parvum invasion assay [6]: no activity | fraction unbound [7]: 0.04 | solubility [8]: 126 µM (≈ 48.1 µg/mL)
